Measurements reported in the supplement of paper PMC10307832.

Legend:
Assay in all cases: relative viability (nuclei count vs DMSO), 5 days (fraction); higher = more cells survive
NCI-H520 = system: NCI-H520
Outline: (§1)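 Nuclei were stained with Hoechst during a one-step fixation (final 0.05% Triton X-100, 1% formaldehyde, 1 ug/ml Hoechst) carried out 5 days after dosing, then counted on 4× images. The cells, lung cancer lines in 1536-well plates, had been dosed by pin tool the day after seeding with one drug alone or a fixed anchor-drug dose plus five library-drug doses (not always all listed) in √10 steps. Relative viability is the nuclei count in treated wells divided by that in vehicle wells, and each value is the median of duplicate plates.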

A-427 = system: A-427
Outline: as §1

H3255 = system: H3255
Outline: as §1

NCI-H1915 = system: NCI-H1915
Outline: as §1

LCLC-97TM1 = system: LCLC-97TM1
Outline: as §1

NCI-H2087 = system: NCI-H2087
Outline: as §1

NCI-H2023 = system: NCI-H2023
Outline: as §1

PC-3 [JPC-3] = system: PC-3 [JPC-3]
Outline: as §1

NCI-H661 = system: NCI-H661
Outline: as §1

NCI-H460 = system: NCI-H460
Outline: as §1

NCI-H650 = system: NCI-H650
Outline: as §1

NCI-H1944 = system: NCI-H1944
Outline: as §1

NCI-H1650 = system: NCI-H1650
Outline: as §1

CAL-12T = system: CAL-12T
Outline: as §1

LC-2-ad = system: LC-2-ad
Outline: as §1

NCI-H727 = system: NCI-H727
Outline: as §1

BEN = system: BEN
Outline: as §1

201T = system: 201T
Outline: as §1

NCI-H441 = system: NCI-H441
Outline: as §1

NCI-H1651 = system: NCI-H1651
Outline: as §1

NCI-H596 = system: NCI-H596
Outline: as §1

## Cc1sc2c(c1C)C(c1ccc(Cl)cc1)=N[C@@H](CC(=O)OC(C)(C)C)c1nnc(C)n1-2 [JQ1] + CC(=O)Nc1cccc(-n2c(=O)n(C3CC3)c(=O)c3c(Nc4ccc(I)cc4F)n(C)c(=O)c(C)c32)c1 [Trametinib] (partner 0.02 µM)
NCI-H520; first compound 0.04 µM
  relative viability: 0.565
NCI-H520; first compound 0.1265 µM
  relative viability: 0.66
NCI-H520; first compound 0.4 µM
  relative viability: 0.386
NCI-H520; first compound 1.265 µM
  relative viability: 0.391
NCI-H520; first compound 4 µM
  relative viability: 0.239
A-427; first compound 0.04 µM
  relative viability: 0.759
A-427; first compound 0.1265 µM
  relative viability: 0.843
A-427; first compound 0.4 µM
  relative viability: 0.674
A-427; first compound 1.265 µM
  relative viability: 0.466
A-427; first compound 4 µM
  relative viability: 0.52
H3255; first compound 0.04 µM
  relative viability: 0.58
H3255; first compound 0.4 µM
  relative viability: 0.452
H3255; first compound 1.265 µM
  relative viability: 0.345
H3255; first compound 4 µM
  relative viability: 0.322
NCI-H1915; first compound 0.04 µM
  relative viability: 0.281
NCI-H1915; first compound 0.4 µM
  relative viability: 0.317
NCI-H1915; first compound 1.265 µM
  relative viability: 0.237
NCI-H1915; first compound 4 µM
  relative viability: 0.2
LCLC-97TM1; first compound 0.04 µM
  relative viability: 0.187
LCLC-97TM1; first compound 0.1265 µM
  relative viability: 0.149
LCLC-97TM1; first compound 0.4 µM
  relative viability: 0.189
LCLC-97TM1; first compound 1.265 µM
  relative viability: 0.102
LCLC-97TM1; first compound 4 µM
  relative viability: 0.102
NCI-H2087; first compound 0.04 µM
  relative viability: 0.192
NCI-H2087; first compound 0.1265 µM
  relative viability: 0.179
NCI-H2087; first compound 0.4 µM
  relative viability: 0.18
NCI-H2087; first compound 1.265 µM
  relative viability: 0.142
NCI-H2087; first compound 4 µM
  relative viability: 0.167
NCI-H2023; first compound 0.04 µM
  relative viability: 0.472
NCI-H2023; first compound 0.1265 µM
  relative viability: 0.394
NCI-H2023; first compound 0.4 µM
  relative viability: 0.248
NCI-H2023; first compound 1.265 µM
  relative viability: 0.162
NCI-H2023; first compound 4 µM
  relative viability: 0.137
PC-3 [JPC-3]; first compound 0.04 µM
  relative viability: 0.683
PC-3 [JPC-3]; first compound 0.1265 µM
  relative viability: 0.609
PC-3 [JPC-3]; first compound 0.4 µM
  relative viability: 0.49
PC-3 [JPC-3]; first compound 1.265 µM
  relative viability: 0.475
PC-3 [JPC-3]; first compound 4 µM
  relative viability: 0.461
NCI-H661; first compound 0.04 µM
  relative viability: 0.554
NCI-H661; first compound 0.1265 µM
  relative viability: 0.451
NCI-H661; first compound 0.4 µM
  relative viability: 0.508
NCI-H661; first compound 1.265 µM
  relative viability: 0.46
NCI-H661; first compound 4 µM
  relative viability: 0.441
NCI-H460; first compound 0.04 µM
  relative viability: 0.129
NCI-H460; first compound 0.1265 µM
  relative viability: 0.0734
NCI-H460; first compound 0.4 µM
  relative viability: 0.0575
NCI-H460; first compound 1.265 µM
  relative viability: 0.0314
NCI-H460; first compound 4 µM
  relative viability: 0.0297
NCI-H650; first compound 0.04 µM
  relative viability: 0.852
NCI-H650; first compound 0.1265 µM
  relative viability: 0.812
NCI-H650; first compound 0.4 µM
  relative viability: 0.779
NCI-H650; first compound 1.265 µM
  relative viability: 0.371
NCI-H650; first compound 4 µM
  relative viability: 0.275
NCI-H1944; first compound 0.04 µM
  relative viability: 0.409
NCI-H1944; first compound 0.1265 µM
  relative viability: 0.394
NCI-H1944; first compound 0.4 µM
  relative viability: 0.305
NCI-H1944; first compound 1.265 µM
  relative viability: 0.288
NCI-H1944; first compound 4 µM
  relative viability: 0.278
NCI-H1650; first compound 0.04 µM
  relative viability: 0.477
NCI-H1650; first compound 0.1265 µM
  relative viability: 0.425
NCI-H1650; first compound 0.4 µM
  relative viability: 0.43
NCI-H1650; first compound 1.265 µM
  relative viability: 0.18
NCI-H1650; first compound 4 µM
  relative viability: 0.145
CAL-12T; first compound 0.04 µM
  relative viability: 0.354
CAL-12T; first compound 0.1265 µM
  relative viability: 0.29
CAL-12T; first compound 0.4 µM
  relative viability: 0.207
CAL-12T; first compound 1.265 µM
  relative viability: 0.193
CAL-12T; first compound 4 µM
  relative viability: 0.208
LC-2-ad; first compound 0.04 µM
  relative viability: 0.866
LC-2-ad; first compound 0.1265 µM
  relative viability: 0.918
LC-2-ad; first compound 0.4 µM
  relative viability: 0.708
LC-2-ad; first compound 1.265 µM
  relative viability: 0.479
LC-2-ad; first compound 4 µM
  relative viability: 0.303
NCI-H727; first compound 0.04 µM
  relative viability: 0.403
NCI-H727; first compound 0.1265 µM
  relative viability: 0.421
NCI-H727; first compound 0.4 µM
  relative viability: 0.381
NCI-H727; first compound 1.265 µM
  relative viability: 0.365
NCI-H727; first compound 4 µM
  relative viability: 0.401
BEN; first compound 0.04 µM
  relative viability: 1.05
BEN; first compound 0.1265 µM
  relative viability: 0.829
BEN; first compound 0.4 µM
  relative viability: 0.557
BEN; first compound 1.265 µM
  relative viability: 0.481
BEN; first compound 4 µM
  relative viability: 0.41
201T; first compound 0.04 µM
  relative viability: 0.72
201T; first compound 0.4 µM
  relative viability: 0.538
201T; first compound 1.265 µM
  relative viability: 0.505
201T; first compound 4 µM
  relative viability: 0.391
NCI-H441; first compound 0.04 µM
  relative viability: 0.476
NCI-H441; first compound 0.1265 µM
  relative viability: 0.377
NCI-H441; first compound 0.4 µM
  relative viability: 0.31
NCI-H441; first compound 1.265 µM
  relative viability: 0.175
NCI-H441; first compound 4 µM
  relative viability: 0.169
NCI-H1651; first compound 0.04 µM
  relative viability: 0.782
NCI-H1651; first compound 0.1265 µM
  relative viability: 0.742
NCI-H1651; first compound 0.4 µM
  relative viability: 0.603
NCI-H1651; first compound 1.265 µM
  relative viability: 0.496
NCI-H1651; first compound 4 µM
  relative viability: 0.437
NCI-H596; first compound 0.04 µM
  relative viability: 0.776
NCI-H596; first compound 0.1265 µM
  relative viability: 0.683
NCI-H596; first compound 0.4 µM
  relative viability: 0.442
NCI-H596; first compound 1.265 µM
  relative viability: 0.338
NCI-H596; first compound 4 µM
  relative viability: 0.31
